According to the Kinase Knowledgebase extract (Sharma et al. 2016):
Values joined by “and” are separate entries in the source; they are usually repeats but may differ in a detail not shown here. Identical values can stand only once.

Experiments:
PIK3CA (human) [1] = target: PIK3CA (human) (UniProt P42336); experiment: Enzyme Assay
PIK3CB (Human) [2] = target: PIK3CB (Human) (UniProt P42338); experiment: Enzyme Assay
PIK3CD (Human) [3] = target: PIK3CD (Human) (UniProt O00329); experiment: Enzyme Assay
PIK3CG (human) = PIK3CG (human) (UniProt P48736); experiment: Enzyme Assay
PIK3CA (human) [4] = target: PIK3CA (human) (UniProt P42336); experiment: Cell-Based Assay; conditions: rat-1
[5] = target: PIK3CA (human), P42336 [H1047R]; experiment: Cell-Based Assay; conditions: detroit562
PIK3CB (Human) [6] = target: PIK3CB (Human) (UniProt P42338); experiment: Cell-Based Assay; conditions: rat-1
PIK3CD (Human) [7] = target: PIK3CD (Human) (UniProt O00329); experiment: Cell-Based Assay; conditions: rat-1

PIK3CD (Human), sequence (O00329 whole entry, looked up): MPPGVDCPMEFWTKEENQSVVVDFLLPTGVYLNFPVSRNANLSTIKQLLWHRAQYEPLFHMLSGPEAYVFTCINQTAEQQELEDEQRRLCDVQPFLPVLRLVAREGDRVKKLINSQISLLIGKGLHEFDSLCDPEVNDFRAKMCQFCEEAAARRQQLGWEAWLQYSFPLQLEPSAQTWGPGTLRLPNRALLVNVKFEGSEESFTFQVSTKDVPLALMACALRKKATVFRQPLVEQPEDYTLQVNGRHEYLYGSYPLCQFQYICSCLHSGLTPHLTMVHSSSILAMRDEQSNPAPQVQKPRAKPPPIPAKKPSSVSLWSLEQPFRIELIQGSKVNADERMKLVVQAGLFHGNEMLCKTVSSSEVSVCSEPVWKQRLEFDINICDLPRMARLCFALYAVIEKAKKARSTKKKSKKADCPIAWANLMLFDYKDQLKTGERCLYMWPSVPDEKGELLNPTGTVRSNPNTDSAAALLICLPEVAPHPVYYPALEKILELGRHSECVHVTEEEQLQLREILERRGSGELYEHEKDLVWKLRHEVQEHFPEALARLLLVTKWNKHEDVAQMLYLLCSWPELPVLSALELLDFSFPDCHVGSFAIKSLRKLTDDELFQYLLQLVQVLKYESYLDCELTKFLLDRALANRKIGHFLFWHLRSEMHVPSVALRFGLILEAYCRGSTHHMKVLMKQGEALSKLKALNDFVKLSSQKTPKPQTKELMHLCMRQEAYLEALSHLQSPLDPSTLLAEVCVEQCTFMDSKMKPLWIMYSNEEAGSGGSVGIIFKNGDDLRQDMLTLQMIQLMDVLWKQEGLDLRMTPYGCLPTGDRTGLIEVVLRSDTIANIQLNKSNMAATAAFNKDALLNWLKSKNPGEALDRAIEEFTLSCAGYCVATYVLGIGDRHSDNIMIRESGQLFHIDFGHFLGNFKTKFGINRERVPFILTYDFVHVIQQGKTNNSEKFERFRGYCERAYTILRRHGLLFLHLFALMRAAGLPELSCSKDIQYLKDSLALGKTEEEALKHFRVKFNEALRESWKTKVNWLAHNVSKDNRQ
PIK3CG (human), sequence (P48736 whole entry, looked up): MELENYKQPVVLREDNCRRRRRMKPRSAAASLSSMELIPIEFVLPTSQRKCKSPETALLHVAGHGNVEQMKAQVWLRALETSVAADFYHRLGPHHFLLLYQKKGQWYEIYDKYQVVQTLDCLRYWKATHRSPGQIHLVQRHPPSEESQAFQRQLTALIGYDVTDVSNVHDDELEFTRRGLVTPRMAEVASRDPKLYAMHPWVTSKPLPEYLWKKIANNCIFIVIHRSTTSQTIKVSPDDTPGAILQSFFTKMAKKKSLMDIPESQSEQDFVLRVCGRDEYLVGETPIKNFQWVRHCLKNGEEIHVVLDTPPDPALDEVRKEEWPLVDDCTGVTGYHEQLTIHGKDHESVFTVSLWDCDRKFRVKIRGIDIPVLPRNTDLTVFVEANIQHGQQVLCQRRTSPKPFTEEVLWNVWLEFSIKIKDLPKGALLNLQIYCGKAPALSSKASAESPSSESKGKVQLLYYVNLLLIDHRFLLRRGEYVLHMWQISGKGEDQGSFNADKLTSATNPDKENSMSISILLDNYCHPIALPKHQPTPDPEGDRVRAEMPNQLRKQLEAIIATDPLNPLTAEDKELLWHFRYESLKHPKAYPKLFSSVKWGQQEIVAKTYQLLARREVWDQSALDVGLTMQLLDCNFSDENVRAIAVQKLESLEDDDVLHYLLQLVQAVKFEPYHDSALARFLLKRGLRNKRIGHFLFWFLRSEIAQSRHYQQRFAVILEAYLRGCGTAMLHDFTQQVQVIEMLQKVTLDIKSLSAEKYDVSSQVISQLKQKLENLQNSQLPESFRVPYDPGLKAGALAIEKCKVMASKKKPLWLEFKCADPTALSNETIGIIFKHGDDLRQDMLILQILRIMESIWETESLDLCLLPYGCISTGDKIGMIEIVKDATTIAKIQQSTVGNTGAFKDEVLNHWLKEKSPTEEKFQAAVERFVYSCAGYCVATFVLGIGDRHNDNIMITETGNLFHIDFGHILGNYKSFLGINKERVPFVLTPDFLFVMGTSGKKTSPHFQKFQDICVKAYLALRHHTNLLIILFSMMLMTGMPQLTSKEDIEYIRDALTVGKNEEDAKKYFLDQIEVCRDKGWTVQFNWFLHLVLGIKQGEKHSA
PIK3CA (human), P42336 [H1047R], sequence (P42336 whole entry H1047R, looked up): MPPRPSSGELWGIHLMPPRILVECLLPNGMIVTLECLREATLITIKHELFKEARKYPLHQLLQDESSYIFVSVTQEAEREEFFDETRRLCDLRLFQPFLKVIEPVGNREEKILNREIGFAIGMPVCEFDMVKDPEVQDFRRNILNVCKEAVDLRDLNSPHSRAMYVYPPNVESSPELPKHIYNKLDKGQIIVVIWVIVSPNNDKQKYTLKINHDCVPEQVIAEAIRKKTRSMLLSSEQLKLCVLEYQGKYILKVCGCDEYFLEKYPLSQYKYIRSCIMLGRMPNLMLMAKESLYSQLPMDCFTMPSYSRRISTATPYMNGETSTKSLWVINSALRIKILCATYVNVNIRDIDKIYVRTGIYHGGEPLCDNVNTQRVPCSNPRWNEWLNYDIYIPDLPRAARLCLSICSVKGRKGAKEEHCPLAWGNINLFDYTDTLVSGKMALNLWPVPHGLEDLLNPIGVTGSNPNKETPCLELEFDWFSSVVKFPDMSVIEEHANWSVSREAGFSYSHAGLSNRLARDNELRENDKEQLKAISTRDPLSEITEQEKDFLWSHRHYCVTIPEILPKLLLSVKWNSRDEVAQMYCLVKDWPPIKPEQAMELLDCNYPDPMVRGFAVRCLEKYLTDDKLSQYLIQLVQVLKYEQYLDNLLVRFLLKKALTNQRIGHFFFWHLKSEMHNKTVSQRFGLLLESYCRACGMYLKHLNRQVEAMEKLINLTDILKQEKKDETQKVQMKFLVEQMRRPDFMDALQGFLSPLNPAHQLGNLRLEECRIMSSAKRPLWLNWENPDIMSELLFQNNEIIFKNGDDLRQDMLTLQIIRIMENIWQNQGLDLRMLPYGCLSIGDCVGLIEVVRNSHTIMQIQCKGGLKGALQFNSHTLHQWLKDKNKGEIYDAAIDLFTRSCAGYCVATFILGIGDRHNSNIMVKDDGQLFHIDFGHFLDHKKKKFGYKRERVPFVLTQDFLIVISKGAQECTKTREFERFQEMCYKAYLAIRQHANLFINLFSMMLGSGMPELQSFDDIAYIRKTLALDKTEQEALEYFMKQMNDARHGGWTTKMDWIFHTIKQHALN
PIK3CB (Human), sequence (P42338 whole entry, looked up): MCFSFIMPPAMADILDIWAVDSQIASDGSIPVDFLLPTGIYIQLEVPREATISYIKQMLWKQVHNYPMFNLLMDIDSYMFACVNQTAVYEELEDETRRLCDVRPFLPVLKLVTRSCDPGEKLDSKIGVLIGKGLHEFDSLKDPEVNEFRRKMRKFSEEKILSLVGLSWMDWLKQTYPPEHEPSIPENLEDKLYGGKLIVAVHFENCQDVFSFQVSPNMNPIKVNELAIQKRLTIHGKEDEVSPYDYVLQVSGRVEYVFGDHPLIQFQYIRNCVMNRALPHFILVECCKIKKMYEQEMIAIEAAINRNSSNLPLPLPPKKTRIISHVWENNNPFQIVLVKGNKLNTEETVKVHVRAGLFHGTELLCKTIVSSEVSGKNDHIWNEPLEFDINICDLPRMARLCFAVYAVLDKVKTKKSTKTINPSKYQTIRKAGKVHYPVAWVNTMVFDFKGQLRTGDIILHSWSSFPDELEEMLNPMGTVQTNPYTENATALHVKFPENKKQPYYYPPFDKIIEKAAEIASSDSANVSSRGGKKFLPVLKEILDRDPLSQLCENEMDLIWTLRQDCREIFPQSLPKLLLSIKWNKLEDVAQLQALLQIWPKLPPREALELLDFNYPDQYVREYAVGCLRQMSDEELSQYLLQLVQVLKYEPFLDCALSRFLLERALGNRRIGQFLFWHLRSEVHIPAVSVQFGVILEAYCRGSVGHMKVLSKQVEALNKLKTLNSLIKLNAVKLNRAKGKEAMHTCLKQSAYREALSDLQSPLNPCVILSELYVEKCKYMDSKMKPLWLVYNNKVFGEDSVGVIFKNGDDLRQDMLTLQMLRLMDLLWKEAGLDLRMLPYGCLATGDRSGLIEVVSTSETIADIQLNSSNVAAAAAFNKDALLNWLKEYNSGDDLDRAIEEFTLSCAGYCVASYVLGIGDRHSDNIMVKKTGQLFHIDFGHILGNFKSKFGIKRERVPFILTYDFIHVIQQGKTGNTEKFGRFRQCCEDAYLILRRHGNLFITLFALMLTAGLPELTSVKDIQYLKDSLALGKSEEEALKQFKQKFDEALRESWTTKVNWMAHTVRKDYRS
PIK3CA (human), sequence (P42336 whole entry, looked up): as the sequence (P42336 whole entry H1047R, looked up) above, with R1047H counted along it

| SMILES | IC50 (PIK3CA (human) [1]) [µM] | IC50 (PIK3CB (Human) [2]) [µM] | IC50 (PIK3CD (Human) [3]) [µM] | IC50 (PIK3CG (human)) [µM] | IC50 (PIK3CA (human) [4]) [µM] | IC50 [5] | IC50 (PIK3CB (Human) [6]) [µM] | IC50 (PIK3CD (Human) [7]) [µM] |
| --- | --- | --- | --- | --- | --- | --- | --- | --- |
| Nc1cc(C(F)(F)F)c(-c2cc(N3CCN(c4ccccc4)C3=O)nc(N3CCOCC3)n2)cn1 | 0.091 | 0.236 | 1.98 | 7.35 | 0.606 | 4.55 µM and 2.81 µM | 1.58 | 1.47 |
| Nc1cc(C(F)(F)F)c(-c2cc(N3CCC(=O)CC3)nc(N3CCOCC3)n2)cn1 | 0.327 | 1.07 | 1.22 | 4.46 | 1.73 | 3.3 µM | 5.31 | 6.54 |
| CC[C@@H]1[C@@H](c2cccc(OC)c2)OC(=O)N1c1cc(-c2cnc(N)nc2C(F)(F)F)nc(N2CCOCC2)n1 | – | – | – | 7 | – | – | – | – |
| Nc1cc(C(F)(F)F)c(-c2cc(N3CCCCC3=O)nc(N3CCOCC3)n2)cn1 | 0.094 | 0.237 | 0.848 | 3.36 | 0.369 | 4.41 µM and 3.08 µM | 1.54 | 1.04 |
| Nc1ncc(-c2cc(N3CCOCC3)nc(N3CCOCC3)n2)c(C(F)(F)F)n1 | – | – | 0.024 | 0.315 | – | – | – | 0.139 |
| C[C@H]1[C@H](c2nccs2)OC(=O)N1c1cc(-c2cnc(N)nc2C(F)(F)F)nc(N2CCOCC2)n1 | – | – | – | – | – | 0.44 µM and 0.598 µM | – | – |
| COCCOc1ccc([C@@H]2OC(=O)N(c3cc(-c4cnc(N)nc4C(F)(F)F)nc(N4CCOCC4)n3)[C@H]2CO)cc1 | – | – | – | – | – | – | – | 0.004 |
| Nc1ncc(-c2cc(N3CCOC(c4ccccc4)C3)nc(N3CCOCC3)n2)c(C(F)(F)F)n1 (configuration not stated) | 0.015 | 0.027 | 0.11 | 0.17 | > 10 | 2.39 µM and 1.37 µM | > 10 | 0.105 |
| CC[C@H]1[C@H](c2ccc(OC)cc2)OC(=O)N1c1cc(-c2cnc(N)nc2C(F)(F)F)nc(N2CCOCC2)n1 | – | 0.096 | – | 5.8 | – | – | – | – |
| Nc1ncc(-c2cc(N3C(=O)O[C@@H](c4ccc(OCCO)cc4)[C@@H]3CO)nc(N3CCOCC3)n2)c(C(F)(F)F)n1 | – | – | – | – | – | – | < 0.003 | < 0.003 |
